Tests used:
pancreas of mice [1] = experiment: Tension (suture-holding capacity) of the mouse pancreas after treatment, Newton dynamometer; type: in vivo; conditions: mouse pancreas treated with 1 mM of compound; for change in the tension of the pancreas compared to the control: compared to control (PBS / untreated), result in words; for response vs control in vivo at 1000 µM: fold of control, read-out: increase of the tension of the pancreas compared to the control
Method: Specifically, it means a force which occurs in an organ in response to an external force exerted by stretching or pulling action. The measurement of the tension according to the present invention is performed using a dynamometer. More specifically, the tension is determined by measuring suture-holding capacity using a Newton dynamometer. At this time, the tension is calculated by adding the weight of the tissue.
(§1) More specifically, three mice were treated with 1 mM of each of the antibiotics shown above, and three mice were treated with phosphate buffered saline (PBS) as a control.
(2) Measurement of Tensile
The tension of the pancreas was measured using a dynamometer. Specifically, a pancreatic fragment having a size of 1×1×1.5 cm was prepared, and then silk 4-0 suture was passed through the tissue to form a knob, and suture-holding capacity was measured using a Newton dynamometer. At this time, the tension was calculated by adding the weight of the tissue.

pancreas of mice [2] = experiment: Hardness (elastic modulus) of the mouse pancreas after treatment, hardness meter (Venustron); type: in vivo; conditions: mouse pancreas treated with 1 mM of compound; compared to control (PBS / untreated); result in words
Method: The measurement of the hardness according to the present invention is performed using a hardness meter, and measurement of the hardness of the pancreas is performed by measuring elastic modulus (EM) based on the Hooke's law and the Hertz's contact stress theory. The EM is a measure of the stiffness of an elastic material, and is expressed as the ratio of “the stress along the axis” and “the total strain along the axis within the range of the stress” by the Hooke's law.
as §1
(1) Measurement of Hardness
In order to measure the resistance of the pancreas using a hardness meter, the elastic modulus (EM) of the dissected pancreas was measured using Venustron (Axiom, Koriyama, Japan) based on the Hooke's law and the Hertz's contract stress theory, and the resistance of the pancreas was calculated using the following equation: […]
(F, force; v, Poisson's ratio; t, variant of compression; r, the diameter of a rigid spherical probe that presses an object vertically)

O=C(O)c1cnc2cc(Cl)ccc2c1O [KRP-00001, 7-chloro-4-hydroxy-3-quinolinecarboxylic acid]
change in the tension of the pancreas compared to the control (pancreas of mice [1]): increased both the hardness and tension
response vs control in vivo at 1000 µM (pancreas of mice [1]): ≥ 150%
change in the hardness of the pancreas compared to the control (pancreas of mice [2]): increased both the hardness and tension

Oc1ccc(Cl)c2cccnc12 [KRP-00002, 5-chloro-8-hydroxyquinoline]
change in the tension of the pancreas compared to the control (pancreas of mice [1]): increased both the hardness and tension
response vs control in vivo at 1000 µM (pancreas of mice [1]): ≥ 150%
change in the hardness of the pancreas compared to the control (pancreas of mice [2]): increased both the hardness and tension

Oc1c(I)cc(Cl)c2cccnc12 [KRP-00003, 5-chloro-8-hydroxy-7-iodoquinoline]
change in the tension of the pancreas compared to the control (pancreas of mice [1]): increased both the hardness and tension
response vs control in vivo at 1000 µM (pancreas of mice [1]): ≥ 150%
change in the hardness of the pancreas compared to the control (pancreas of mice [2]): increased both the hardness and tension

Oc1c(I)cc(I)c2cccnc12 [KRP-00004, 5,7-diiodo-8-hydroxyquinoline]
change in the tension of the pancreas compared to the control (pancreas of mice [1]): increased both the hardness and tension
response vs control in vivo at 1000 µM (pancreas of mice [1]): ≥ 150%
change in the hardness of the pancreas compared to the control (pancreas of mice [2]): increased both the hardness and tension

O=C(O)c1cc(O)c2cccc(O)c2n1 [KRP-00005, 4,8-dihydroxyquinoline-2-carboxylic acid]
change in the tension of the pancreas compared to the control (pancreas of mice [1]): increased both the hardness and tension
response vs control in vivo at 1000 µM (pancreas of mice [1]): ≥ 150%
change in the hardness of the pancreas compared to the control (pancreas of mice [2]): increased both the hardness and tension

Cc1cc(O)c2ccccc2n1 [KRP-00006, 4-hydroxy-2-methylquinoline]
change in the tension of the pancreas compared to the control (pancreas of mice [1]): increased both the hardness and tension
change in the hardness of the pancreas compared to the control (pancreas of mice [2]): increased both the hardness and tension

O=C(O)c1cnc2cc(C(F)(F)F)ccc2c1O [KRP-00009, 4-hydroxy-7-trifluoromethyl-3-quinolinecarboxylic acid]
change in the tension of the pancreas compared to the control (pancreas of mice [1]): increased both the hardness and tension
response vs control in vivo at 1000 µM (pancreas of mice [1]): ≥ 150%
change in the hardness of the pancreas compared to the control (pancreas of mice [2]): increased both the hardness and tension

Oc1ccnc2ccccc12 [KRP-00012, 4-hydroxyquinoline]
change in the tension of the pancreas compared to the control (pancreas of mice [1]): increased both the hardness and tension
response vs control in vivo at 1000 µM (pancreas of mice [1]): ≥ 150%
change in the hardness of the pancreas compared to the control (pancreas of mice [2]): increased both the hardness and tension

Oc1ccc2ncccc2c1 [KRP-00013, 6-hydroxyquinoline]
change in the tension of the pancreas compared to the control (pancreas of mice [1]): increased both the hardness and tension
response vs control in vivo at 1000 µM (pancreas of mice [1]): ≥ 150%
change in the hardness of the pancreas compared to the control (pancreas of mice [2]): increased both the hardness and tension

Oc1ccc2ccccc2n1 [KRP-00014, 2-hydroxyquinoline]
change in the tension of the pancreas compared to the control (pancreas of mice [1]): increased both the hardness and tension
response vs control in vivo at 1000 µM (pancreas of mice [1]): ≥ 150%
change in the hardness of the pancreas compared to the control (pancreas of mice [2]): increased both the hardness and tension

O=C(O)c1ccc2cccnc2c1O [KRP-00016, 8-hydroxyquinoline-7-carboxylic acid]
change in the tension of the pancreas compared to the control (pancreas of mice [1]): increased both the hardness and tension
response vs control in vivo at 1000 µM (pancreas of mice [1]): ≥ 150%
change in the hardness of the pancreas compared to the control (pancreas of mice [2]): increased both the hardness and tension

From patent US11773109B2, “Composition for hardening soft tissue” (The Catholic University of Korea Industry—Academic …, priority 2016, dated 2023)
